{"source": "patent US20250120902A1", "about": "“POSTBIOTIC FERMENT COMPOSITION FOR ROOT, SCALP, AND HAIR CARE AND METHOD OF PREPARING AND USING THE” (THE ROOTIST INC., priority 2023, published 2025)", "test_system": "3D hair follicle organoids (HFDPC and HEKn cells)", "experiment": "Hair follicle organoid growth test", "assay_type": "cell-based, Human", "settings": "1 μM", "description": "Human Primary Dermal Papilla Cells (HFDPC) were collected from a person and provided by Kyungpook National University. Human Primary Epidermal Keratinocytes, neonatal foreskin (HEKn) cells were purchased from ATCC. […] The hair follicle organoid growth test aims to mass-produces hair follicle organoids by proliferating dermal papilla cells isolated from adult hair tissue in vitro, mixing them with keratinocytes, and then co-culturing them on a specially designed particle pattern substrate ([…], 150 spheroids/well). The experiment enables the assessment of the sample's impact on hair growth by monitoring changes in the diameter of keratinocyte pillars within the developed hair follicle organoid. In this test, to differentiate and validate the growth of HFDPC and HEKn cells, HFDPC cells were stained with Cell tracker CM-DilTM and HEKn cells were stained with Cell tracker Green CMFDATM. Stained HFDPC cells underwent filtration using a 15 μm strainer before being combined with DMEM medium to yield a density of 5×10^4 cells/well. Similarly, HEKn cells were adjusted to a density of 3×10^4 cells/well. […] 4) The test result measurements were initially analyzed using the Linear Mixed Model (LMM), which accounts for the random effects of each well. However, due to the lack of normality, the data were re-analyzed using the Generalized Linear Mixed Model (GLMM), which is suitable for non-normal data. […]", "note": "“And” between values parts separate entries of the source, which are not always exact repeats. Identical values can stand only once.", "data": [{"smiles": "Nc1cc(N2CCCCC2)nc(N)[n+]1[O-]", "note": "[Minoxidil, minoxidil]", "values": [{"measurement": "Hair follicle organoid growth rate", "setting": "day 3, compared to the untreated group (100%)", "result": "114.67% and 114.67 ± 5.69%"}, {"measurement": "hair follicle organoid diameter", "setting": "day 3, estimated mean ± standard deviation", "result": "25.77 ± 1.28", "unit": "μm"}]}]}
